# Source: patent US20100048732A1, “Method of mediating Airway Smooth Muscle Construction Due to Airway Irritation” (priority 2006, published 2010)
# Starred links: 1 amine or outer side, 2 acyl side, 3 side chain; linkers in the order of their positions; H or OH if unused. Positions of bridges follow the written chain, without caps; N, C: chain ends. Non-standard residues stand in square brackets, D forms with d. Residues, ends and D or L forms follow the SMILES beside them. No end group written: not given here. *: point of attachment. X2 = CN(/C(=C\c1ccc(O)cc1)C(=O)[*:2])[*:1]; X1 = CCCCCc1ccccc1CCC(=O)*
# Columns and labels:
# [1] = tested on: substance P contraction, guinea pig tracheal rings; assay: Relaxation of substance P-induced contraction in guinea pig tracheal rings; assay type: cell-based; details: FIG. 2, FIG. 3E-F, FIG. 8
# Description: (§1) Substance P is an endogenous tachykinin released in airways by C fibers during irritation of the airway.
# (§2) Propofol is known to have preferential protective airway effects during intubation compared to other intravenous anesthetics (3, 4). To determine if two other commonly used intravenous anesthetics have similar protective airway effects on contractile challenges, etomidate and ketamine were evaluated to determine their ability to relax airway smooth muscle contraction induced by NANC nerve stimulation (FIGS. 3A and B), cholinergic nerve stimulation (FIGS. 3C and D), and exogenous addition of substance P (FIGS. 3E and F) to isolated guinea pig tracheal rings in organ baths.
# Propofol's effect as an anesthetic is modulated by an allosteric potentiation of GABA at GABAA receptors in the brain. However, we are unaware of any report that GABAA receptors have been found on airway smooth muscle.
# [2] = tested on: NANC contractions, epithelium-denuded guinea pig tracheal rings; assay: Relaxation of NANC (C fiber, neurally liberated tachykinin) contractions in guinea pig tracheal rings; assay type: cell-based; details: clinically relevant concentrations, FIG. 2, FIG. 3A-B
# Description: as §1, §2
# [3] = tested on: cholinergic nerve mediated contractions, guinea pig tracheal rings; assay: Relaxation of cholinergic nerve mediated contractions in guinea pig tracheal rings; assay type: cell-based; details: clinically relevant concentrations, FIG. 1, FIG. 3C-D
# Description: To distinguish between the two possibilities, intravenous anesthetics were evaluated for their effects on attenuating bronchoconstriction induced by activation of the cholinergic nerves (liberating acetylcholine). […] (FIG. 1.)
# as §2
# [4] = tested on: acetylcholine-induced contractions, isolated rings of guinea pig trachea; details: isolated guinea pig tracheal rings; clinically significant/relevant concentrations; FIG. 1
# Description: Intravenous anesthetics were compared for their ability to relax airway smooth muscle contractions in isolated rings of guinea pig trachea in response to acetylcholine.
# [5] = tested on: endothelin-1 induced contractions, guinea pig tracheal rings; details: within clinically relevant concentrations, FIG. 4
# Description: (§5) To determine if propofol and thiopental have the ability to relax histamine or endothelial induced contractions, propofol and thiopental were evaluated at clinical and supra-clinical concentrations to determine their ability to relax histamine or endothelin-1 induced contractions in guinea pig tracheal rings.
# [6] = tested on: histamine induced contractions, guinea pig tracheal rings; details: within clinically relevant concentrations, FIG. 4
# Description: as §5
# guinea pig airway rings = details: cited from earlier work
# [7] = tested on: substance P contraction, human tracheal rings; assay: Substance P contraction of human tracheal rings in organ baths and its relaxation; assay type: cell-based; details: human tracheal rings in organ baths; for relaxation of substance P contraction in human tracheal rings: cumulative concentrations, FIG. 5, FIG. 9
# Description: (§3) (FIG. 9.) To determine if the mechanism of propofol's relaxation of a tachykinin response was mediated by GABAA receptors, the ability of an antagonist of GABAA receptors should inhibit propofol's response was evaluated. […] (FIG. 10.)
# GABAA receptors = details: FIG. 10
# Description: as §3
# [8] = tested on: NK2-induced contraction, guinea pig tracheal rings; details: guinea pig tracheal rings stimulated with neurokinin A; FIG. 6B
# Excerpt: (§4) Guinea pig tracheal rings stimulated with acetyl-substance P to produce an NK1-induced contraction (FIG. 6A) and with neurokinin A to produce an NK2-induced contraction (FIG. 6B).
# [9] = tested on: NK1-induced contraction, guinea pig tracheal rings; details: guinea pig tracheal rings stimulated with acetyl-substance P; FIG. 6A
# Excerpt: as §4
# [10] = tested on: methacholine induced bronchoconstriction; details: sheep; delivery via the bronchial artery; cited from earlier work
# [11] = tested on: L-type calcium channels, intracellular calcium changes, inositol phosphate synthesis in airway smooth muscle; details: above clinically achieved concentrations; cited from earlier work
# [12] = tested on: vagal nerve induced bronchospasm; details: sheep; delivery via the bronchial artery; cited from earlier work
# [13] = tested on: permeabilized canine tracheal smooth muscle cells; details: absence or presence of muscarinic receptor activation, propofol 270 μM; cited from earlier work
# [14] = tested on: methacholine, histamine-induced (neural component) or vagal nerve-induced bronchoconstriction; details: neural component of histamine-induced, or vagal nerve-induced bronchoconstriction; cited from earlier work
# [15] = tested on: contractile responses from acetylcholine, histamine, and endothelin in airway tissues; details: airway tissues from humans and animal models; cited from earlier work
# [16] = tested on: bradykinin induced bronchoconstriction; details: asthmatics; cited from earlier work
compound,measurement,setting,value
CNC1(c2ccccc2Cl)CCCCC1=O (stereo not shown) [ketamine],attenuation/relaxation of substance P (exogenous tachykinin) contraction,[1],failed to relax
same,attenuation/relaxation of NANC contractions (neurally liberated tachykinins),[2],failed to relax
same,relaxation of cholinergic nerve mediated contractions,[3],failed to relax
CCCC(C)C1(CC)C(=O)NC(=S)NC1=O (stereo not shown) [thiopental],relaxation of acetylcholine-induced contractions,[4],dose-dependently relaxed
same,relaxation of endothelin-1 induced contraction,[5],neither anesthetic effected the spontaneous relaxation
same,relaxation of histamine induced contraction,[6],neither anesthetic effected the spontaneous relaxation
NCc1cc(=O)[nH]o1 [muscimol],attenuation/relaxation of substance P (exogenous tachykinin) contraction,[1],dose-dependently relaxed
same,effect on acetylcholine-induced contraction,guinea pig airway rings,failed to show an effect
same,effect on basal tone,guinea pig airway rings,failed to show an effect
same,relaxation of substance P contraction in human tracheal rings,[7],dose dependently relaxed
COc1ccc(-c2ccc(=N)n(CCCC(=O)O)n2)cc1 [Gabazine],reversal of propofol mediated relaxation of a substance P contraction,GABAA receptors,able to reverse propofol mediated relaxation
CCOC(=O)c1cncn1[C@H](C)c1ccccc1 [etomidate],attenuation/relaxation of substance P (exogenous tachykinin) contraction,[1],failed to relax
same,attenuation/relaxation of NANC contractions (neurally liberated tachykinins),[2],failed to relax
same,relaxation of cholinergic nerve mediated contractions,[3],failed to relax
"CC(C)c1cccc(C(C)C)c1O [propofol, 2,6-diisopropylphenol]",relaxation of acetylcholine-induced contractions,[4],without effect
same,attenuation/relaxation of substance P (exogenous tachykinin) contraction,[1],more effective than thiopental
same,relaxation of NK2-induced contraction,[8],significantly relaxed
same,relaxation of NK1-induced contraction,[9],much less effective
same,propofol dose attenuating methacholine induced bronchoconstriction,[10],3 mg/min
same,"propofol concentration needed for effects on L-type calcium channels, intracellular calcium or inositol phosphate signaling",[11],> 100 µM
same,propofol dose attenuating vagal nerve induced bronchospasm,[12],0.3 mg/min
same,relaxation of endothelin-1 induced contraction,[5],neither anesthetic effected the spontaneous relaxation
same,attenuation/relaxation of NANC contractions (neurally liberated tachykinins),[2],more effective than thiopental
same,calcium sensitivity,[13],not effected
same,propofol concentration attenuating bronchoconstriction in dogs,[14],20 mg/mL
same,relaxation of substance P contraction in human tracheal rings,[7],dose-dependently relaxed
same,"propofol concentration attenuating contractile responses from acetylcholine, histamine, endothelin",[15],100 to 300 µM
same,relaxation of cholinergic nerve mediated contractions,[3],failed to relax
same,relaxation of histamine induced contraction,[6],neither anesthetic effected the spontaneous relaxation
"Substance P (RPKPQQFFGLM-NH2; ends and bridges not checked; UniProt P20366 58-68, looked up) [endogenous tachykinin released in airways by C fibers during irritation of the airway]",contraction of human tracheal rings,[7]; FIG. 5,dose-dependently contracted
CCCCCc1ccccc1CCC(=O)NC1C(=O)N(C)/C(=C\c2ccc(O)cc2)C(=O)NC(CC(C)C)C(=O)NC(Cc2ccccc2)C(=O)NC(C(C)O)C(=O)NC(CC(N)=O)C(=O)NC(CO)C(=O)OC1C (stereo not shown) [FK224] (X1-T[X2]LFTNS; ester 1-C; configuration not given here),effect on bradykinin induced bronchoconstriction,[16],attenuated bradykinin induced bronchoconstriction
